Patent US8946302B2, “Selective sigma-1 receptor ligands” (Wisconsin Alumni Research Foundation, priority 2008, dated 2015)

What was measured:
sigma-2 receptor [1] = molecular target: T1, sigma-2 receptor (Rattus norvegicus, UniProt Q5U3Y7); assay: Sigma-2 receptor competitive binding, trace amines; set-up: from tissue; host or cells: liver membranes (rat inferred)
T1 sequence (Q5U3Y7 1-176): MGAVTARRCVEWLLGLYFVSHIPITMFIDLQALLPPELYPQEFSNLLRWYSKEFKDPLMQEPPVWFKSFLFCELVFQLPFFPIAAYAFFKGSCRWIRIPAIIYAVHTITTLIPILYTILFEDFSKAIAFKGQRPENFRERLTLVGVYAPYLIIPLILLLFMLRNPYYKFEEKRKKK
Method: (§1) Competitive binding assays were performed as previously described (18) with the exception of testing new ligands shown in Table 4.

sigma-1 receptor [2] = molecular target: T2, sigma-1 receptor (Cavia porcellus, UniProt Q60492); assay: Sigma-1 competitive binding, (+)-[3H]pentazocine, guinea pig liver membranes (Example 6); set-up: from tissue; host or cells: guinea pig liver membranes;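 note: compounds tested over serial concentrations, 45 min incubation at 30 °C with membrane preparations, read-out is displacement of bound radioligand from the receptor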
T2 sequence (Q60492 whole entry): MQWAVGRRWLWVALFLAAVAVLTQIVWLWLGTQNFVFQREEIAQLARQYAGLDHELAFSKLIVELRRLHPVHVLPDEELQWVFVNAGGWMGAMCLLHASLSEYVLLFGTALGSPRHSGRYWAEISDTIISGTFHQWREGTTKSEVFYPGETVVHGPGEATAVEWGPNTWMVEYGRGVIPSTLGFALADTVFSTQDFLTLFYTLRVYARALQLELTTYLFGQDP

sigma-2 receptor [3] = molecular target: T1, sigma-2 receptor; assay: Sigma-2 competitive binding, [3H]-DTG with (+)-pentazocine, rat liver membranes (Example 6); set-up: from tissue; host or cells: rat liver membranes; conditions: rat liver membranes, n = 3; read-out: Sigma2 KD values
Method: Minced frozen rat livers or guinea pig livers (65 g) were thawed in 100 mL homogenization buffer (10 mM phosphate buffer pH 7.4 containing 0.32M sucrose, 1 M MgSO4, 0.5 M EGTA, 1 mM phenylmethylsulphonyl fluoride (PMSF), 10 μg/mlleupeptin, 1 μg/ml pepstatin A, 10 μg/ml p-toluenesulfonyl-L-arginine methyl ester (TAME) and then homogenized on ice with a Brinkman polytron homogenizer (setting 6, 4 bursts of 10 second each) followed by a glass homogenizer (Teflon pestle by 6 slow passes at 3,000 rpm). The homogenized tissues were then centrifuged at 17,000 g for 10 minutes. The supernatants were re-centrifuged at 100,000 g for 1 hour. The microsomal pellets were resuspended in homogenization buffer, snap frozen with dry ice-ethanol, and stored at −80° C. at a final protein concentration of 20 mg/mL.
Assays for sigma-1 were performed using 10 nM (+)-[^3H]pentazocine in guinea pig liver homogenates (25 μg/well) incubated at 30° C. for 1 hour with several concentrations of competing ligands. After incubation, membranes were harvested on a 0.5% PEI-treated Whatman GF/B filters using a Brandel Cell Harvester. (+)-[^3H]pentazocine binding was determined by liquid scintillation counting. […] Serial concentrations of the compounds evaluated were added to the reactions for 45 minutes at 30° C. and the samples vacuum filtered through 0.5% polyethyleneimine (PEI) treated Whatman GF/B as described above to measure displacement of the radioligands from the sigma receptor subtypes.

sigma-1 receptor [4] = molecular target: T2, sigma-1 receptor; assay: Competition assay against (+)-[3H]-pentazocine, trace amines; assay type: binding; set-up: from tissue; conditions: for sigma-2/sigma-1 Kd ratio: sigma-2 KD / sigma-1 KD
Method: as §1

σ-1 Sites = molecular target: T3, σ-1 Sites (Cavia porcellus, UniProt Q60492); assay: σ-1 sites radioligand binding, guinea pig liver membranes (Table 2)
T3 construct: from tissue
T3 sequence (Q60492 whole entry): as above

[5] = molecular target: T4, purified sigma-1 receptor (Cavia porcellus, UniProt Q60492); assay: Competitive displacement of [3H]-(+)-pentazocine at the pure sigma-1 receptor; assay type: binding, guinea pig; conditions: [3H]-(+)-pentazocine, read-out: Ki Pure σ-1R
T4 construct: made in house; host or cells: E. coli BL21 DE3
T4 sequence (Q60492 whole entry): as above
Method: A guinea pig sigma-1 receptor was purified as previously described (Ramachandran et al., Protein Expr. Purif., 2007. 51(2): 283-92). The pMal P2X plasmid (New England Biolabs) encoding the guinea pig sigma-1 receptor on the C-terminus of the E. coli Maltose Binding Protein was used for purification. The sigma-1 receptor on its C-terminus carried a hexa-histadine epitope tag. Protein was expressed in the E. coli strain BL21 DE3 (Novagen) with 0.6 mM IPTG. The E. coli pellet was sonicated and centrifuged at 100,000 g for 1 hour to separate the particulate and soluble fractions. The particulate fraction was extracted with Triton X-100, centrifuged and the extract was loaded onto an amylose resin (New England Biolabs, E-802). After washing the resin with buffer containing 0.5% Triton X-100, the MBP-sigma-1 receptor fusion protein was eluted with buffer containing 10 mM maltose.
The MBP-sigma-1-receptor fusion protein was cleaved with Factor Xa protease (Novagen) at room temperature for 24-48 hours and the cleavage was monitored with SDS-polyacrylamide gel electrophoresis. The sigma-1 receptor from the Factor Xa cleavage was purified with a HIS-Select HC Nickel affinity gel (Sigma-Aldrich P6611) in a batch format. The resin was washed with buffer containing 0.5% Triton X-100 detergent and the beads were separated by a brief centrifugation at 4000 rpm in a microcentrifuge. After washing to remove MBP, the pure sigma-1 receptor was eluted in buffer containing 250 mM imidazole.
To remove the undigested MBP-sigma-1 receptor fusion protein that is carried over in the Ni^2+ purification, the eluate from the Ni^2+ purification was incubated with Anti-MBP antibody conjugated to agarose (Vector Laboratories, Burlingame, Calif.) at 4° C. for 18-24 hours. The beads were separated by centrifugation and the supernatant contained the pure sigma-1 receptor.
Competition ligand binding to the pure sigma-1 receptor was performed as previously described. […] After incubation at 30° C. for 60 minutes, the reaction was terminated by rapid filtration through glass fiber filters (Whatman GF/B), using a Brandel cell harvester (Brandel, Gaithersburg, Md.). The glass fiber filters were pre-soaked in 0.5% polyethyleneimine (PEI) for at least 1 hour at room temperature (˜23° C.). Filters were washed 4 times with 4 mL of ice-cold 50 mM Tris-C1, pH 8.0. Radioactivity was quantified by liquid scintillation counting using a Packard model 1600 CA scintillation counter.

σ-2 Sites = molecular target: T5, σ-2 Sites (Rattus norvegicus, UniProt Q5U3Y7); assay: σ-2 sites radioligand binding, rat liver membranes (Table 2)
T5 construct: from tissue
T5 sequence (Q5U3Y7 1-176): T1 sequence (Q5U3Y7 1-176)

Kv 1.4 K+ channel = molecular target: T6, Kv 1.4 K+ channel (Rattus norvegicus, UniProt P15385); assay: Whole cell patch clamp of Kv 1.4 K+ channel co-expressed with sigma-1 receptor in HEK-293 cells; assay type: cell-based; conditions: HEK-293 co-expressing sigma-1 receptor; read-out: EC50 for inhibition of the Kv 1.4 K+ channel
T6 construct: expressed in transfected cells; host or cells: HEK-293, transient, pIRES KvS1R plus pEGFP
T6 sequence (Q9R0C9 whole entry partner): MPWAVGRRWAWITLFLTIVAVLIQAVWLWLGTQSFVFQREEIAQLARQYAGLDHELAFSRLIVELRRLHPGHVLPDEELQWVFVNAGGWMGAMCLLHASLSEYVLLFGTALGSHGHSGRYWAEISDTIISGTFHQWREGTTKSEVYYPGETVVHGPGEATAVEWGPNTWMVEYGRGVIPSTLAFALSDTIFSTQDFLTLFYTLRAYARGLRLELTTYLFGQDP
T6 sequence (P15385 whole entry): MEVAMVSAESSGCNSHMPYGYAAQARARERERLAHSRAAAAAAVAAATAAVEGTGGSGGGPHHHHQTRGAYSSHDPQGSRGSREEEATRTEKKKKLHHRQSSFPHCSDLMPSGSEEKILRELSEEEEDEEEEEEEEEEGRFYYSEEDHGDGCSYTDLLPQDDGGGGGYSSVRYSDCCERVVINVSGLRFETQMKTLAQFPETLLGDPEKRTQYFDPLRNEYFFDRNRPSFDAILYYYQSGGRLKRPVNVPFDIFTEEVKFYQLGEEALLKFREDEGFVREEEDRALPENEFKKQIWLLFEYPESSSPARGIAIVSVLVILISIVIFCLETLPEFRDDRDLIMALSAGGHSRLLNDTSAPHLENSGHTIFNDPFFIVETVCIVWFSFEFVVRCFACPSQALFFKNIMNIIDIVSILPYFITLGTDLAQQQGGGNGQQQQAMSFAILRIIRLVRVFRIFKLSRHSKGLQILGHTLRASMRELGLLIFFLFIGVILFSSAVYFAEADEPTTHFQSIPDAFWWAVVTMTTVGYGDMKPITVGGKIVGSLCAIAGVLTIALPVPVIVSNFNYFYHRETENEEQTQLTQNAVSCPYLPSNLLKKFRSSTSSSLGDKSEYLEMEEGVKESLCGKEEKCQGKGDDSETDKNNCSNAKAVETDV
Method: After transfection (36-48 hours), whole cell K^+ currents were recorded from GFP positive HEK cells under voltage clamp using standard patch clamp techniques, using patch pipettes filled with (in mM) 120 KCl, 10 NaCl, 10 EGTA, 2 MgCl2, 2-4 MgATP, 0.3 NaGTP, 10 HEPES, pH 7.3.
The external solution was composed of (in mM) 130 NaCl, 4 KCl, 2 CaCl2, 1 MgCl2, 10 HEPES, pH 7.4 at room temperature (22-24° C.). Patch pipettes with resistances from 1-3 MΩ were fabricated from borosilicate glass (Garner Glass Co., CA). K^+ channels were activated by voltage step from −120 mV to 20 mV for 250 ms. Axopatch 200B, patch clamp amplifier interfaced to a PC running PCLAMP 7 (Axon Instruments) was used for data acquisition. Drugs were applied by a gravity feed system at a flow rate of 1-3 mL/minute. Series resistance compensation was used for cells with series resistance values higher than 10 MΩ. A 80-90% series resistance compensation was achieved on such cells.
K^+ currents were recorded using whole cell patch clamp technique.

sigma-1 receptor [6] = molecular target: sigma-1 receptor (Homo sapiens, UniProt Q99720); conditions: literature value; cited from earlier work
Sequence of sigma-1 receptor (Homo sapiens, UniProt Q99720) (Q99720 whole entry, species assumed): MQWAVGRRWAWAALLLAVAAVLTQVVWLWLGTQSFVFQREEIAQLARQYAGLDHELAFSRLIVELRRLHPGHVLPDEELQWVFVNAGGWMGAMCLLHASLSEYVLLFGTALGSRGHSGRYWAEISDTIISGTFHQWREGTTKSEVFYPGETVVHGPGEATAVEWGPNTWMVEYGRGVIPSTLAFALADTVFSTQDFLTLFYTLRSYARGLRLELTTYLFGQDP

sigma-2 receptor [7] = molecular target: sigma-2 receptor (Homo sapiens, UniProt Q5BJF2); conditions: literature value; cited from earlier work
Sequence of sigma-2 receptor (Homo sapiens, UniProt Q5BJF2) (Q5BJF2 whole entry, species assumed): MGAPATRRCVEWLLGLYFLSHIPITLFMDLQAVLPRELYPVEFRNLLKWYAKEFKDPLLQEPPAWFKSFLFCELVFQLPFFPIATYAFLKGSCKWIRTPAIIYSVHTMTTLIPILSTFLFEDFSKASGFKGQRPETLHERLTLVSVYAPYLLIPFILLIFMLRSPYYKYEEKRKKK

sigma-1 receptor [8] = molecular target: T7, sigma-1 receptor (Rattus norvegicus, UniProt Q9R0C9); assay: Protection of [125I]-IACoc photolabeling in rat liver membranes; assay type: binding; conditions: even at 50 and 100 μM
T7 construct: from tissue; host or cells: rat liver membranes
T7 sequence (Q9R0C9 whole entry): as the sequence (Q9R0C9 whole entry partner) above
Method: Rat liver membranes (100 μg/lane) were suspended in the presence or absence of the protecting drugs. […] Percent band intensities are shown compared to controls performed in the absence of protecting ligand (−).

[9] = system: WT and sigma-1 receptor knockout mice; assay: Open-field hypermobility assay in WT and sigma-1 receptor KO mice; assay type: in vivo, mouse; conditions: WT and KO mice, 3 mg/kg i.p.
Method: All mice were maintained on a normal light/dark cycle and handled in accordance with Animal Care and Use Guidelines of the University of Wisconsin, Madison. […] Mice were first acclimatized to the experimental room for one hour. WT and KO mice were injected with the monoamine oxidase inhibitor, pargyline (75 mg/kg, i.p.) two hours prior to DMT or vehicle injection(28). […] Each condition represents 8 to 14 mice (n=8-14). […] A computer program was used to quantitate movement and after each experiment, 70% ethanol was used to remove odors from the open-field.

SMILES: CNCCc1ccc(O)cc1 [N-methyltyramine, 4-(2-(methylamino)ethyl)phenol]
- Kd (sigma-2 receptor [1]; read-out: Sigma-2R KD): 6.61 µM

SMILES: CCCCN(CCCC)C(=O)CCc1ccc(F)cc1 [Compound 5, N,N-Dibutyl-3-(4-fluorophenyl)propionamide]
- Ratio (σ2/σ1) (sigma-1 receptor [2]): 3.94
- Kd (sigma-1 receptor [2]; guinea pig liver membranes, n = 3, read-out: Sigma 1 KD values): 32.1 µM
- Kd (sigma-2 receptor [3]): 126 µM
- melting point: 162 to 164 °C

SMILES: CN(C)CCc1ccccc1 [N,N′-dimethylPEA, N,N-dimethyl-2-phenylethylamine]
- sigma-2/sigma-1 Kd ratio (sigma-1 receptor [4]): 1.642

SMILES: CCCCNCCCc1ccccc1 [Compound 1a, N-(3-Phenylpropyl)butan-1-amine]
- Ki (σ-1 Sites; guinea pig liver membranes): 0.073 µM
- σ-1 selectivity σ-2 Ki/σ-1 Ki (σ-1 Sites; σ-2 rat liver / σ-1 guinea pig liver membranes): 2
- Ki [5]: 0.205 ± 0.0185 µM
- Ki (σ-2 Sites): 0.153 µM
- EC50 (Kv 1.4 K+ channel): 50 µM

SMILES: CNCCc1ccccc1 [N-methylPEA]
- sigma-2/sigma-1 Kd ratio (sigma-1 receptor [4]): 0.366

SMILES: CC1CN(CCCc2ccc(N=[N+]=[N-])c([125I])c2)CC(C)O1 (stereo not shown) [[^125I]IAF, 1-N-(2′,6′-dimethyl-morpholino)-3-(4-azido-3-[^125I]iodo-phenyl)propane]
- Kd (sigma-1 receptor [6]): 0.194 µM
- Kd (sigma-2 receptor [7]): 2.78 µM

SMILES: CCCCCCCCN(CCCCCCCC)C(=O)CCc1ccc(F)cc1 [Compound 4, N,N-Dioctyl-3-(4-fluorophenyl)propionamide]
- melting point: 190 to 193 °C

SMILES: CNCCc1c[nH]c2ccccc12 [N-methyltryptamine]
- protection of sigma-1 receptor [125I]-IACoc photolabeling (sigma-1 receptor [8]): protected minimally

SMILES: CN[C@@H](C)Cc1ccccc1 [methamphetamine]
- hypermobility [9]: induced hypermobility in both WT and KO mice

SMILES: NCCc1ccccc1 [Phenethylamine]
- Kd (sigma-2 receptor [1]): 7.31 µM
- Kd (sigma-1 receptor [4]): 97.4 µM
